Results on 34 compounds are retold here after ChEMBL document CHEMBL1134944, “Design and synthesis of xanthine analogues as potent and selective PDE5 inhibitors” (Bioorg Med Chem Lett, 2002).

Active and inactive are the calls of the source. The calls are words filed in the database; no cut-off is given here.

Assay [1] deals with T1, cGMP-specific 3',5'-cyclic phosphodiesterase (Homo sapiens, UniProt O76074). The experiment in a line: Percentage inhibition against human phosphodiesterase type 5 isolated from corpus cavernosum at 100 nM.
The target in assay [2] is T1, cGMP-specific 3',5'-cyclic phosphodiesterase. The experiment in a line: Concentration required to inhibit phosphodiesterase type 5 (PDE5) isolated from corpus cavernosum by 50% was determined.
In assay [3] the target is Phosphodiesterases; PDE5 & PDE6 (Homo sapiens) (UniProt O76074+Q13956+P18545+P35913+O43924+P16499+P51160). The experiment in a line: Selectivity for PDE6 compared to PDE5. The assay is classed as protein assay.
Assay [4] can be described thus: Relative inhibition of PDEs 1-4 and PDE5.
For assay [5], the species on record is Oryctolagus cuniculus. The experiment in a line: 0.50 Hz electrical frequency stimulated (EFS) relaxation of rabbit corpus cavernosum at 25-30 nM. In kind it is functional.
The species entered for assay [6] is Oryctolagus cuniculus. The experiment in a line: 1.0 Hz electrical frequency stimulated (EFS) relaxation of rabbit corpus cavernosum at 25-30 nM. In kind it is functional.
The species named for assay [7] is Oryctolagus cuniculus. The experiment in a line: 16.0 Hz electrical frequency stimulated (EFS) relaxation of rabbit corpus cavernosum at 25-30 nM. The assay is classed as functional.
Assay [8] is filed under the species Oryctolagus cuniculus. The experiment in a line: 2.0 Hz electrical frequency stimulated (EFS) relaxation of rabbit corpus cavernosum at 25-30 nM. In kind it is functional.
The species entered for assay [9] is Oryctolagus cuniculus. The experiment in a line: 4.0 Hz electrical frequency stimulated (EFS) relaxation of rabbit corpus cavernosum at 25-30 nM. The assay is classed as functional.
The species named for assay [10] is Oryctolagus cuniculus. The experiment in a line: 8.0 Hz electrical frequency stimulated (EFS) relaxation of rabbit corpus cavernosum at 25-30 nM. The assay is classed as functional.

The inhibition is the change of the read-out against control, counted positive when it falls. High values mean a response far below the control, low ones a response near the control. For the compound `Cn1c(=O)c2c(nc(N[C@@H]3CCC[C@H]3O)n2Cc2ccccc2)n(C)c1=O`, the inhibition in assay [1] turned out to be 17%.
For orientation: IC50 means the concentration that gives 50% inhibition. A low value points to greater potency. In assay [2], `CCn1c(=O)c2c(nc(NC3CCCCC3)n2Cc2ccc3c(c2)OCO3)n(CC)c1=O` displayed an IC50 of 3.7 nM. For the same compound, the Ratio in assay [3] was determined as 14.
The compound `CCn1c(=O)c2c(nc(NC3CCCCC3)n2Cc2ccc(OC)c(F)c2)n(CC)c1=O` came in with an IC50 in assay [2] of 0.3 nM. Further, the Ratio is 350 in assay [3] and above 28000 in assay [4].
As for `CCn1c(=O)c2c(nc(NC3CCCCC3)n2Cc2ccc(O)cc2)n(CC)c1=O`, in assay [2], the midpoint of inhibition, the IC50, lay at 0.6 nM. Also, the Relaxation in the assay listed under Oryctolagus cuniculus [5] came to 25%; in the assay filed under Oryctolagus cuniculus [6], 50%; in the assay listed under Oryctolagus cuniculus [7], 75%; in the assay filed under Oryctolagus cuniculus [8], 75%; in the assay filed under Oryctolagus cuniculus [9], 75%; in the assay listed under Oryctolagus cuniculus [10], 75%. Also, the Ratio in [3] is 101; in assay [4], above 3000.
Take `Cn1c(=O)c2c(nc(N[C@H](CO)Cc3ccccc3)n2Cc2ccccc2)n(C)c1=O`: the inhibition in [1] was determined as 0%.
In the case of `CCn1c(=O)c2c(nc(NC3CCCCC3)n2Cc2ccc(OC)c(Cl)c2)n(CC)c1=O`, 0.58 nM corresponded to half-maximal inhibition in assay [2] (IC50). The Ratio in assay [3] is 345; in assay [4], above 9500.
The compound `CCn1c(=O)c2c(nc(NC3CCCC3)n2Cc2ccc(OC)cc2)n(CC)c1=O` showed an IC50 in assay [2] of 2.1 nM. The Ratio in assay [3] was 33.
The like results for `CCn1c(=O)c2c(nc(NC3CCCC3)n2Cc2ccc(O)cc2)n(CC)c1=O` were, in that order, 1.5 nM and 46.
`Cn1c(=O)c2c(nc(N[C@@H](CO)Cc3ccccc3)n2Cc2ccccc2)n(C)c1=O`: the inhibition in [1] was 4%.
In [2], `CCn1c(=O)c2c(nc(NC3CCCCC3)n2Cc2ccc(OC)c(C)c2)n(CC)c1=O` yielded an IC50 of 19 nM. Also, the Ratio in [3] is 58.
In [1], `CC(C)[C@H](CO)Nc1nc2c(c(=O)n(C)c(=O)n2C)n1Cc1ccccc1` came in with an inhibition of 11%.
As to `CCn1c(=O)c2c(nc(NC3CCCCC3)n2Cc2cccc(O)c2)n(CC)c1=O`, inhibition in assay [2] was half-maximal at 1.2 nM (IC50). In addition, the Ratio in assay [3] amounted to 36.
Compound `CCn1c(=O)c2c(nc(NC3CCCCC3)n2Cc2ccc(O)c(C)c2)n(CC)c1=O` registered an IC50 in assay [2] of 4.5 nM. In addition, the Ratio in [3] is 133.
The like results for `CCn1c(=O)c2c(nc(NC3CCCC3)n2Cc2ccc(OC)c(Cl)c2)n(CC)c1=O` were, in that order, 1.1 nM and 118.
The like results for `CCn1c(=O)c2c(nc(NC3CCCC3)n2Cc2ccc(OC)c(F)c2)n(CC)c1=O` were, in that order, 0.69 nM and 89.
For the compound `CCn1c(=O)c2c(nc(NC3CCCCC3)n2Cc2ccccc2)n(CC(C)C)c1=O`, the inhibition in assay [1] is 63%.
Compound `CCn1c(=O)c2c(nc(NC3CCCCC3)n2Cc2ccc(OC)c(Br)c2)n(CC)c1=O` showed an IC50 in [2] of 1.7 nM. The Ratio in [3] was 219; in [4], above 10000.
`CCn1c(=O)c2c(nc(NC3CCCCC3)n2Cc2ccc(O)c(Cl)c2)n(CC)c1=O` registered an IC50 in assay [2] of 2 nM. In addition, in [3], the Ratio turned out to be 250.
In [2], `CCn1c(=O)c2c(nc(NC3CCCCC3)n2Cc2ccc(O)c(F)c2)n(CC)c1=O` registered a half-maximal inhibitory concentration (IC50) of 0.33 nM. Moreover, the results for the Ratio in [3] and in assay [4] were 364 and above 12000, respectively.
Take `Cn1c(=O)c2c(nc(NC3CCCCC3)n2Cc2ccccc2)n(C)c1=O`: the inhibition in [1] was found to be 54%.
The compound `Cn1c(=O)c2c(nc(NC3CCCC3)n2Cc2ccccc2)n(C)c1=O` displayed an inhibition in assay [1] of 62%.
In assay [2], `CCn1c(=O)c2c(nc(NC3CCCC3)n2Cc2ccc(O)c(F)c2)n(CC)c1=O` showed a concentration for half-maximal inhibition (IC50) of 0.82 nM. Further, the Ratio in [3] was 182; in [4] it was above 4400.
As for `CC(C)Cn1c(=O)n(C)c(=O)c2c1nc(NC1CCCCC1)n2Cc1ccccc1`, in assay [1], the inhibition stood at 52%.
Still for that read-out and setting: the value for `CC(C)Cn1c(=O)n(C)c(=O)c2c1nc(NC1CCCC1)n2Cc1ccccc1` was 49%.
Consider `CCn1c(=O)c2c(nc(NC3CCCCC3)n2Cc2cccc(OC)c2)n(CC)c1=O`, for which the half-maximal inhibitory concentration (IC50) in assay [2] was 100 nM. The Ratio entry in assay [3] is “inactive”.
For `CCn1c(=O)c2c(nc(NC3CCCC3)n2Cc2ccccc2)n(CC(C)C)c1=O`, the inhibition in assay [1] worked out at 56%.
Same read-out and setting: the result for `Cn1c(=O)c2c(nc(N[C@@H](CO)c3ccccc3)n2Cc2ccccc2)n(C)c1=O` reads 0%; that for `Cn1c(=O)c2c(nc(NCC3(O)CCCCC3)n2Cc2ccccc2)n(C)c1=O`, 10%.
As for `CCn1c(=O)c2c(nc(NC3CCCCC3)n2Cc2ccc(OC)cc2)n(CC)c1=O`, half-maximal inhibition in assay [2] (IC50) required 2.6 nM. In assay [3], the Ratio stood at 51.
`CC(C)[C@@H](CO)Nc1nc2c(c(=O)n(C)c(=O)n2C)n1Cc1ccccc1` gave an inhibition in assay [1] of 2%.
`CCn1c(=O)c2c(nc(NC3CCCC3)n2Cc2ccc(O)c(Cl)c2)n(CC)c1=O` came in with an IC50 in assay [2] of 1.8 nM. The Ratio in assay [3] was 261.
On to `CCn1c(=O)c2c(nc(NC3CCCCC3)n2Cc2ccccc2)n(CC)c1=O`, for which, in assay [2], the half-inhibitory concentration (IC50) worked out at 12 nM. The inhibition in assay [1] is 93%. For the same compound, in assay [3], the Ratio was 35.
As for `CCn1c(=O)c2c(nc(NC3CCCC3)n2Cc2ccccc2)n(CC)c1=O`, in assay [1], the inhibition turned out to be 91%. For the same compound, in assay [3], the Ratio worked out at 21.
Compound `Cn1c(=O)c2c(nc(N[C@H](CO)c3ccccc3)n2Cc2ccccc2)n(C)c1=O` came in with an inhibition in assay [1] of 5%.
